Data from PMC10261104, “Regioselective stilbene O-methylations in Saccharinae grasses” (Nature Communications, 2023).
One block for each compound: values may come before it.

Tests used:
[1] = target: T1, SbCOMT (caffeic acid O-methyltransferase) (Sorghum bicolor, UniProt C5YH12); assay: ITC; enzyme kinetics (Km […]); format: binding
T1 construct: gene SORBI_3007G047300; residues 2–362
T1 sequence (C5YH12 2-362): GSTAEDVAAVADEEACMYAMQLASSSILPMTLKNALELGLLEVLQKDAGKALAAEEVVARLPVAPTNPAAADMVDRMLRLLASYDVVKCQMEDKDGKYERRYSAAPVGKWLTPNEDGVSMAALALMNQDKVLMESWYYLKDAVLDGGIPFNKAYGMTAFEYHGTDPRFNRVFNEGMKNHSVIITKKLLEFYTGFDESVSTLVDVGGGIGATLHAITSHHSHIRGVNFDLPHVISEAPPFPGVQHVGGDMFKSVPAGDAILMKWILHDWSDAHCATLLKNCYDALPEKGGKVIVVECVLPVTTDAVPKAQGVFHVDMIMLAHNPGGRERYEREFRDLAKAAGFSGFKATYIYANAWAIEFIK

[2] = target: T2, SbSOMT (stilbene O-methyltransferase) (Sorghum bicolor, UniProt A0A1B6PFV1); assay: ITC; X-ray crystal structure ([…] Å, ternary complex); enzyme kinetics (Km […]); format: binding
T2 construct: gene SORBI_3007G059100; residues 2–377
T2 sequence (A0A1B6PFV1 2-377): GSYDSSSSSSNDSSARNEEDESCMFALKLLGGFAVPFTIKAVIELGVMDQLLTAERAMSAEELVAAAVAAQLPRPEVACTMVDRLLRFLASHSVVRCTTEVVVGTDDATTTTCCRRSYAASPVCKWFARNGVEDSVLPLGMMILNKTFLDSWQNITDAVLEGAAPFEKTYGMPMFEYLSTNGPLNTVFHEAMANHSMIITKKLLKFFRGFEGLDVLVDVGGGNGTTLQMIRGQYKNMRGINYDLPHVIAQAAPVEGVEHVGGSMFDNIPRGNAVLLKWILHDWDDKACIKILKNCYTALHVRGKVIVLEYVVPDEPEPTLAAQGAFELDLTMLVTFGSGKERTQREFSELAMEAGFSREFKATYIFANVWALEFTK

[3] = target: T2, SbSOMT (stilbene O-methyltransferase); assay: ITC; format: binding
[4] = target: T1, SbCOMT (caffeic acid O-methyltransferase); assay: ITC; format: binding
[5] = target: T2, SbSOMT (stilbene O-methyltransferase); assay: ITC; X-ray crystal structure ([…] Å, ternary complex); format: binding
[6] = target: Sorghum bicolor stilbene O-methyltransferase (SbSOMT) (Sorghum bicolor); assay: crystal structure; SbSOMT co-crystallised with resveratrol, pinostilbene or pterostilbene, with or without β-NAD; sitting drop vapor diffusion, 18 °C
[7] = target: T1, SbCOMT (caffeic acid O-methyltransferase); assay: ITC; […]ʹ-O-methylation enzyme assay; format: binding
[8] = target: T2, SbSOMT (stilbene O-methyltransferase); assay: ITC; X-ray crystal structures (binary, and ternary with β-NAD at […] Å); methylation assay; format: binding

Compound: COc1cc(O)cc(/C=C/c2ccc(O)cc2)c1 [pinostilbene]
Kd [1]: 1.79 µM
Kd [2]: 2.86 µM

Kd [3]: 90 µM
Kd ([4]; read-out: SbCOMT): 13 µM
Compound: C[S+](CC[C@H](N)C(=O)[O-])C[C@H]1O[C@@H](n2cnc3c(N)ncnc32)[C@H](O)[C@@H]1O (stereo partly shown) [SAM]

Kd [5]: 11.2 µM
Kd ([4]; read-out: SbCOMT): 3.99 µM
Compound: COc1cc(/C=C/c2ccc(O)cc2)cc(OC)c1 [pterostilbene]

stoichiometry N [6]: 2
Compound: Sorghum bicolor stilbene O-methyltransferase (SbSOMT) (enzyme)

Compound: Oc1cc(O)cc(/C=C/c2ccc(O)c(O)c2)c1 [piceatannol]
Kd [7]: 1.26 µM

Compound: Oc1ccc(/C=C/c2cc(O)cc(O)c2)cc1 [resveratrol]
Kd [8]: 4.69 µM
Kd [4]: 1.55 µM
